Patent US20210401931A1, “METHODS AND MATERIALS FOR TREATING CANCER” (Mayo Foundation for Medical Education and Research, priority 2018, published 2021)
Ends that are not written are not given here.

Experiments:
[1] = tested on: PTEN-CaP8 cells; assay: Pd-l1 and NFκB target gene expression in PTEN-CaP8 cells expressing RL peptide; type: cell-based, mouse
Procedure: FIGS. 13A-F. (A, B) PC-3 cells were treated with or without gamma irradiation (IR) (12 Gy). 24 hours post treatment, cells were treated with or without Helenalin (2 μM). 24 hours after treatment, cells were harvested for western blotting analysis (A) and RT-qPCR analysis (B). All data were shown as mean values±SD (n=3). “ns”=not significant, *** P<0.001. (C) PTEN-CaP8 cells were infected with lentivirus expression Tsin control or Tsin-RL S249D/T252D peptide. 72 hours post infection, cell were harvested for western blotting analysis. (D, E) PTEN-CaP8 cells were infected with lentivirus expression Tsin control or Tsin-RL S249D/T252D peptide. 72 hours post infection, cells were treated with or without gamma irradiation (12 Gy) for 48 hours. Cells were harvested for MTS assay (D) and RT-qPCR (E). All data were shown as mean values±SD (n=3). “ns”=not significant, ** P<0.01; *** P<0.001. (F) Schematic diagram depicting the treatment plan for mice bearing subcutaneous PTEN-CaP8 tumors.
Total RNA was isolated using TRIzol reagent (Thermo Fisher Scientific). The NanoDrop 2000 spectrophotometer (Thermo Fisher Scientific) was used to assess RNA yield and quality. […] Quantitative real-time PCR was performed by mixing cDNA, gene-specific primers, and IQ SYRB Green Supermix and detected by iCycler QTX detection system (Bio-Rad). The 2-ΔCt method was used to quantitate fold changes by normalizing to GAPDH. […]

[2] = target: T1, p65 (Homo sapiens, UniProt Q04206); assay: Co-IP of p65 by SFB-tagged RL peptide in 293T cells; type: binding; settings: 48 hours after transfection
T1 construct: endogenous in cells; host or cells: 293T
Procedure: FIGS. 10A-G. (A) Schematic diagram depicting a set of RB-N recombinant protein constructs. Western blot analysis of p65 proteins in PC-3 cells whole cell lysate pulled down by GST or GST-RB-N recombinant proteins. Stars indicate expected molecular weight. (B) Western blot analysis of in vitro transcribed and translated p65 proteins pulled down by GST or GST-RB recombinant proteins. Stars indicate expected molecular weight. (C) Western blot analysis of WCL and co-IP samples in 293T cells 48 h after transfected with indicated constructs. (D) Schematic diagram depicting an evolutionally conserved R-linker region in the N-terminal of RB. FIG. 10D discloses SEQ ID NOS 265 and 271-274, respectively, in order of appearance. (E) Western blot analysis of WCL and co-IP samples in 293T cells 48 hours after transfected with indicated constructs. (F) PC-3 cells were transfected with indicated plasmids. Western blot analysis of HA-RB proteins in PC-3 whole cell lysate pulled down by GST or GST-p65 recombinant proteins. Stars indicate expected molecular weight. (G) Schematic diagram depicting fully positively charged RB-N allows otherwise negatively charged by S249/T252 phosphorylation to bind to negatively charged 166FSLMV170 motif (SEQ ID NO: 286) in EID1. FIG. 10G discloses SEQ ID NOS 265-266 and 275, respectively, in order of appearance. […]

[3] = tested on: PD-L1; assay: PD-L1 expression in cell lines of other cancer types (PANC-1, H1299, SK-Hep1) expressing RL peptide; type: cell-based, human; settings: listed as RL-S249/T252D peptide
Procedure: FIGS. 12A-C. (A, B) PANC-1, H1299, and SK-Hep1 were infected with lentivirus expressing control or RB-specific shRNAs following puromycin selection. 48 hours post infection, cells were transfected with indicated construct. 24 hours after transfection, cells were harvested for western blotting (A) and RT-qPCR (B). All data were shown as mean values±SD (n=3). “ns”=not significant, *** P<0.001. (C) Western blot analysis of expression of PD-L1, RB, pRB-S249/T252, pRB-5795, and ERK2 in prostate cancer cell lines indicated.
Total RNA was isolated using TRIzol reagent (Thermo Fisher Scientific). The NanoDrop 2000 spectrophotometer (Thermo Fisher Scientific) was used to assess RNA yield and quality. RNA was reversely transcribed using Superscript reverse transcriptase (Thermo Fisher Scientific) following manufacturer's instructions. Quantitative real-time PCR was performed by mixing cDNA, gene-specific primers, and IQ SYRB Green Supermix and detected by iCycler QTX detection system (Bio-Rad). The 2-ΔCt method was used to quantitate fold changes by normalizing to GAPDH. Primers for RT-qPCR are provided Table 4.
Cells were harvested and lysed by IP buffer, and the supernatant was quantified by BCA protein quantification assay. Equal amounts of protein sample were added into 4× sample buffer and boiled for 5 minutes. […]

T1 sequence (Q04206 whole entry): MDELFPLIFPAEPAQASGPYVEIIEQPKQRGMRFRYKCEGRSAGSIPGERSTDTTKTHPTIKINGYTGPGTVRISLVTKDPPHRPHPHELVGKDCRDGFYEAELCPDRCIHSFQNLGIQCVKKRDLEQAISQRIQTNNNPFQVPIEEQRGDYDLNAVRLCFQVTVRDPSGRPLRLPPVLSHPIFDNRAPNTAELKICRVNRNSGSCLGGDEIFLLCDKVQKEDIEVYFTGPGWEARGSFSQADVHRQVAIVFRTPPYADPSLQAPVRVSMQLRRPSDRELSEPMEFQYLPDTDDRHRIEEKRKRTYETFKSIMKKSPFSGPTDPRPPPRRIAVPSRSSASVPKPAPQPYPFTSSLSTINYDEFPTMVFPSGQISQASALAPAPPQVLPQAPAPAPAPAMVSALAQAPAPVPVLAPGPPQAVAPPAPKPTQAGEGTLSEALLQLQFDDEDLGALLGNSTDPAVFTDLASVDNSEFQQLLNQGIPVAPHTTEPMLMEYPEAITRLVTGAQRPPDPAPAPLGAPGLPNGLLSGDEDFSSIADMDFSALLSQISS

RL-S249D/T252D: S249/T252 phospho-mimicking R-Linker (RL) peptide: fragment of RB-N containing 21 amino acids surrounding S249/T252, expressed SFB-tagged or by lentivirus (NGDPRDPRRGQNRSARIAKQL; also: expressed SFB-tagged (tag left off))
expression of anti-apoptotic / pro-survival NFκB target genes ([1]; PTEN-CaP8 cells, lentiviral peptide expression): blocked
Pd-l1 expression in PTEN-CaP8 cells ([1]; lentiviral Tsin-RL S249D/T252D, 72 hours): completely blocked
immunoprecipitation of p65 by SFB-tagged RL peptide [2]: effectively immunoprecipitated
PD-L1 expression in cell lines of other cancer types [3]: inhibited
